Assay results reported in patent publication US20030206898A1, “Use of anti-TNFalpha antibodies and another drug” (priority 2002, published 2003).
“And” between values parts separate entries of the source, which are not always exact repeats. Equal values may be shown once. “Also recorded” adds a separate entry of the source.

Key:
[1] = test system: patients with rheumatoid arthritis (RA); assay: Same RA study: safety / adverse events; assay type: in vivo, human
Method: A study was designed and conducted to investigate the safety and efficacy of D2E7 40 mg administered every other week to patients with RA whose disease was not adequately treated with their current anti-rheumatic therapies (including accepted DMARDs, NSAIDs, or steroids); and was a multicenter, randomized, double-blind, placebo-controlled study in which D2E7 was subcutaneously (sc) administered every other week for up to 24 weeks at a dosage of 40 mg to patients with rheumatoid arthritis (RA) whose disease was not adequately treated with their current anti-rheumatic therapies. Anti-rheumatic therapies permitted for use during the study included accepted disease-modifying anti-rheumatic drugs (DMARDs), non-steroidal anti-inflammatory drugs (NSAIDs), or steroids. Despite using anti-rheumatic therapies, patients must have had active disease documented at both the screening and baseline visits. Doses of DMARDs, as well as concomitant prednisone (<10 mg daily) and NSAIDs, were required to be stable for at least 28 days prior to screening. […]
Adverse events were summarized by frequency, percentage, as well as the rate per 100 patient-years. […] All other efficacy variables were summarized descriptively (statistical characteristics, frequencies, percentages, confidence intervals) and analyzed by exploratory two-sided statistical tests. […]

[2] = test system: patients with rheumatoid arthritis (RA); assay: Multicenter, randomized, double-blind, placebo-controlled study of D2E7 40 mg sc every other week added to current anti-rheumatic therapies: efficacy (ACR response); assay type: in vivo, human
Method: A study was designed and conducted to investigate the safety and efficacy of D2E7 40 mg administered every other week to patients with RA whose disease was not adequately treated with their current anti-rheumatic therapies (including accepted DMARDs, NSAIDs, or steroids); and was a multicenter, randomized, double-blind, placebo-controlled study in which D2E7 was subcutaneously (sc) administered every other week for up to 24 weeks at a dosage of 40 mg to patients with rheumatoid arthritis (RA) whose disease was not adequately treated with their current anti-rheumatic therapies. Anti-rheumatic therapies permitted for use during the study included accepted disease-modifying anti-rheumatic drugs (DMARDs), non-steroidal anti-inflammatory drugs (NSAIDs), or steroids. Despite using anti-rheumatic therapies, patients must have had active disease documented at both the screening and baseline visits. Doses of DMARDs, as well as concomitant prednisone (<10 mg daily) and NSAIDs, were required to be stable for at least 28 days prior to screening. Additionally, patients using azathioprine and/or cyclosporine discontinued these therapies and underwent a 28-day washout period before screening. At the baseline visit, patients were randomized to D2E7 or placebo and this signified the start of the 24-week placebo-controlled period. Patients were examined at Weeks 2, 4, 8, 12, 16, 20 and 24 of the study.
Patients were inadequately treated with their current anti-rheumatic therapies and had active RA, defined as ≧6 swollen joints and ≧9 tender joints. Additionally, patients using glucocorticoids were allowed into the study if the dose was equivalent to <10 mg/day prednisone and had remained unchanged for at least 28 days.
D2E7 was supplied in 2-mL glass vials (the concentration of D2E7 in each vial was 25 mg/mL (ie, 40 mg/1.6 mL)), each containing 40 mg D2E7/1.6 mL solution for injection. D2E7 was manufactured and supplied by Ebewe Arzneimittel GmbH, in Unterach, Austria. McKesson, HBOC Biosciences, in Rockville, Md., USA, packaged, labeled, stored and distributed D2E7 to the investigators at each site for this study. D2E7 was self-administered as a single sc injection of 40 mg every other week for a period of 24 weeks. The concentration of study drug was 25 mg/mL. Placebo/1.6 mL (citrate-phosphate buffer solution without D2E7) was self-administered as a single sc injection every other week for a period of 24 weeks.
Patients continued to receive their pre-study dose of anti-rheumatic therapies. Anti-rheumatic therapies permitted for use during the study included DMARDs (hydroxychloroquine, leflunomide, methotrexate, parenteral gold, oral gold and sulfasalazine, or any combination of these or other DMARDs), NSAIDs and steroids. Doses of these DMARDs as well as concomitant prednisone (<10 mg daily) and NSAIDs must have been stable for at least 28 days prior to screening.
Efficacy endpoints included: ACR20 response at Week 24; ACR50 and ACR70 at Week 24; AUC (area under the curve) of ACR20, ACR50 and ACR70 from baseline to Week 24; time to first response for ACR20, ACR50 and ACR70; numeric ACR (ACR—N); change from baseline to Week 24 in components of the ACR response criteria (tender joint count [TJC], swollen joint count [SJC], patient assessment of pain, patient and physician global assessments of disease activity, HAQ and C-reactive protein [CRP]); change from baseline to Week 24 in physical function as measured by SF-36, health utilities index (HUI), functional assessment of chronic illness therapy (FACIT) fatigue scale; Euro-QoL questionnaire; multidimensional assessment of fatigue (MAF) scale; subject summary survey; incidence and time to dose increases in background DMARD and/or steroid therapy; institution of new DMARD therapy for lack of clinical response; rheumatoid factor (RF); and morning stiffness.
Adverse events were summarized by frequency, percentage, as well as the rate per 100 patient-years. […]

[3] = Week 2, full analysis set, excluding Site #7
[4] = Week 4, full analysis set, excluding Site #7
[5] = Week 8, full analysis set, excluding Site #7
[6] = Week 12, full analysis set, excluding Site #7
[7] = Week 16, full analysis set, excluding Site #7
[8] = Week 20, full analysis set, excluding Site #7
[9] = Week 24, full analysis set, excluding Site #7
[10] = Week 24, subgroup Three or more DMARDs
[11] = Week 24, subgroup concomitant Antimalarial
[12] = Week 24, subgroup concomitant Leflunomide
[13] = Week 24, subgroup concomitant Methotrexate
[14] = Week 24, subgroup concomitant Sulfasalazine
[15] = through Week 24, full analysis set, excluding Site #7

## D2E7: recombinant, neutralizing human anti-hTNFα antibody; VL region SEQ ID NO: 1, VH region SEQ ID NO: 2
[1]; 40 mg sc every other week, up to 24 weeks
  Tolerability when added to existing DMARD therapies: generally well-tolerated
[1]; dose of 40 mg
  Safety alone or in combination with other DMARDs: safe
[2]; LOCF Week 24, N = 315
  ACR50 response, patients responding: 95 (30.2) N (%)
  ACR70 response, patients responding: 48 (15.2) N (%)
  ACR-N, Mean ± SD: 21.2 ± 55.3
[2]; [3]
  Time to response ACR20: patients responding for the first time: 106 (33.7) N (%)
  Time to response ACR50: patients responding for the first time: 31 (9.8) N (%)
  Time to response ACR70: patients responding for the first time: 9 (2.9) N (%)
[2]; [4]
  Time to response ACR20: patients responding for the first time: 51 (16.2) N (%)
  Time to response ACR50: patients responding for the first time: 31 (9.8) N (%)
  Time to response ACR70: patients responding for the first time: 12 (3.8) N (%)
[2]; [5]
  Time to response ACR20: patients responding for the first time: 52 (16.5) N (%)
  Time to response ACR50: patients responding for the first time: 34 (10.8) N (%)
  Time to response ACR70: patients responding for the first time: 12 (3.8) N (%)
[2]; [6]
  Time to response ACR20: patients responding for the first time: 17 (5.4) N (%)
  Time to response ACR50: patients responding for the first time: 20 (6.3) N (%)
  Time to response ACR70: patients responding for the first time: 18 (5.7) N (%)
[2]; [7]
  Time to response ACR20: patients responding for the first time: 13 (4.1) N (%)
  Time to response ACR50: patients responding for the first time: 20 (6.3) N (%)
  Time to response ACR70: patients responding for the first time: 18 (5.7) N (%)
[2]; [8]
  Time to response ACR20: patients responding for the first time: 12 (3.8) N (%)
  Time to response ACR50: patients responding for the first time: 9 (2.9) N (%)
  Time to response ACR70: patients responding for the first time: 7 (2.2) N (%)
[2]; Week 24, 40 mg sc every other week, N = 315
  ACR20 response, patients responding: 167 (53.0) N (%)
[2]; Week 24, D2E7 added to current anti-rheumatic therapies
  ACR20 response (primary efficacy endpoint): 53.0%
[2]; Week 24, N = 315
  ACR50 response, patients responding: 92 (29.2) N (%) and 92 (29.2)^a N (%)
  ACR70 response, patients responding: 47 (14.9) N (%) and 47 (14.9)^a N (%)
  ACR-N, Mean ± SD: 20.3 ± 55.2
[2]; [9]
  Time to response ACR20: patients responding for the first time: 3 (1.0) N (%)
  Time to response ACR50: patients responding for the first time: 10 (3.2) N (%)
  Time to response ACR70: patients responding for the first time: 8 (2.5) N (%)
[2]; Week 24, subgroup No DMARD
  ACR20 % Response: 50.0%
  ACR50 response: 27.8%
  ACR70 response: 18.5%
  ACR-N, Mean ± SD: 12.8 ± 68.2
[2]; Week 24, subgroup One DMARD
  ACR20 % Response: 55.4%
  ACR50 response: 31.0%
  ACR70 response: 16.3%
  ACR-N, Mean ± SD: 22.8 ± 56.0
[2]; Week 24, subgroup Other DMARDs
  ACR20 % Response: 52.0%
  ACR50 response: 24.0%
  ACR70 response: 16.0%
  ACR-N, Mean ± SD: 25.3 ± 33.9
[2]; [10]
  ACR20 % Response: 45.5%
  ACR50 response: 18.2%
  ACR70 response: 9.1%
  ACR-N, Mean ± SD: 20.1 ± 37.2
[2]; Week 24, subgroup Two DMARDs
  ACR20 % Response: 50.0%
  ACR50 response: 27.3%
  ACR70 response: 9.1%
  ACR-N, Mean ± SD: 19.5 ± 42.3
[2]; [11]
  ACR20 % Response: 50.7%
  ACR50 response: 29.3%
  ACR70 response: 12.0%
  ACR-N, Mean ± SD: 20.0 ± 45.5
[2]; [12]
  ACR20 % Response: 33.3%
  ACR50 response: 14.3%
  ACR70 response: 0.0%
  ACR-N, Mean ± SD: −0.5 ± 77.5
[2]; [13]
  ACR20 % Response: 56.7%
  ACR50 response: 30.9%
  ACR70 response: 15.2%
  ACR-N, Mean ± SD: 26.5 ± 42.3
[2]; [14]
  ACR20 % Response: 58.6%
  ACR50 response: 34.5%
  ACR70 response: 17.2%
  ACR-N, Mean ± SD: 21.4 ± 53.9
[2]; concomitant methotrexate, antimalarials, sulfasalazine, other DMARDs, or 0, 1, 2, ≧3 DMARDs, vs placebo
  Subgroup analyses of ACR20, ACR50, ACR70, ACR-N and their AUC: greater improvement; also recorded: higher response compared to placebo
[2]; in vivo
  Improvement in RA in patients inadequately treated with existing DMARD therapies: significant improvement
[2]; [15]
  Time to response ACR20: Non-responder: 61 (19.4) N (%)
  Time to response ACR50: Non-responder: 160 (50.8) N (%)
  Time to response ACR70: Non-responder: 231 (73.3) N (%)
[2]; vs placebo
  Time to response and AUC for ACR20, ACR50, ACR70; AUC for ACR-N; Euro-QoL, RF, MAF scale: improvement in therapeutic response over placebo
